ChEMBL document CHEMBL1149597, “Structure-activity relationships of semisynthetic mumbaistatin analogs” (Bioorg Med Chem, 2007)
Calls of active or inactive are those of the source. The calls are words filed in the database; no cut-off is given here.

The molecules below were run on Hepatocyte (assay: Inhibition of glucagon-stimulated glucose production in rat hepatocytes at 280 uM).
Type: functional

| SMILES | inhibition at 280 µM [%] |
| --- | --- |
| COc1cc2c(c(/C=C/c3cccc4ccccc34)c1C(=O)O)C(=O)c1c(O)cccc1C2=O | 40 |

The molecules below were run against T1, Glucose-6-phosphate exchanger SLC37A4 (Homo sapiens, UniProt O43826) (assay: (§1) Inhibition of glucose 6 phosphate translocase 1).
T1 sequence (O43826 whole entry): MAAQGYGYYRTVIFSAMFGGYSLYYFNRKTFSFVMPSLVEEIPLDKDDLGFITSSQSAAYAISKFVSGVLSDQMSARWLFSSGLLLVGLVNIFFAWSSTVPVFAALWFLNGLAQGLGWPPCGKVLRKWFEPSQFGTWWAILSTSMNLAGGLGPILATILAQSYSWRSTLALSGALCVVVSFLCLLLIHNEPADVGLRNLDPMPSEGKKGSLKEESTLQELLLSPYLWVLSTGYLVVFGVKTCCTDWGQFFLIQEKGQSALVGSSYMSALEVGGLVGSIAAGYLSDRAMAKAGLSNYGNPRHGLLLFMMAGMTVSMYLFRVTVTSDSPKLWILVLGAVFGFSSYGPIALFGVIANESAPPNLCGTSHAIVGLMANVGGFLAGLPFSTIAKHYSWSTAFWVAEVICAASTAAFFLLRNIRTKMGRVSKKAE

| IC50 [µM] | SMILES |
| --- | --- |
| 200 | CCC(C)CCc1c(C(=O)O)c(O)cc2c1C(=O)c1c(O)cccc1C2=O (centres undefined) |
| 50 | COc1cc2c(c(CSc3ccccc3)c1C(=O)O)C(=O)c1c(O)cccc1C2=O |
| 12.5 | CC/C=C/c1c(C(=O)O)c(OC)cc2c1C(=O)c1c(O)cccc1C2=O |
| 50 | CCCCCC/C=C/c1c(C(=O)O)c(OC)cc2c1C(=O)c1c(O)cccc1C2=O |
| 20 | COc1cc2c(c(Cc3ccccc3)c1C(=O)O)C(=O)c1c(O)cccc1C2=O |
| 50 | C=C(c1cccc(O)c1C(=O)O)c1c(O)cccc1C(CCCCC)OC (centres undefined) |
| 0.005 | O=C(O)CC(O)CCC(=O)c1cccc(O)c1C(=O)c1c(C(=O)O)c(O)cc2c1C(=O)c1c(O)cccc1C2=O (centres undefined) [MUMBAISTATIN] |
| 20 | C=CCCOc1ccccc1/C=C/c1c(C(=O)O)c(OC)cc2c1C(=O)c1c(OC)cccc1C2=O |
| 2.5 | COc1cc2c(c(/C=C/c3cccc4ccccc34)c1C(=O)O)C(=O)c1c(O)cccc1C2=O |
| 2.5 | COc1cc2c(c(/C=C/c3ccccc3)c1C(=O)O)C(=O)c1c(O)cccc1C2=O |
| 100 | CCCCc1c(C(=O)O)c(O)cc2c1C(=O)c1c(O)cccc1C2=O |
| 5 | O=C1c2cccc(O)c2C(=O)c2c1cc(O)c1c2CC(c2cccc3ccccc23)OC1=O (centres undefined) |

These molecules were tested against T2, Glucose-6-phosphate exchanger SLC37A4 (Homo sapiens) (UniProt O43826) (assay: as §1).
T2 sequence (whole entry): T1 sequence (O43826 whole entry)

| Activity | SMILES |
| --- | --- |
| inactive | Cc1c(C(=O)O)c(O)cc2c1C(=O)c1c(O)cccc1C2=O |
